In US20230240290A1, “USE OF (Z)-3-HEXENYL ESTERS AND METHOD FOR PROTECTING PLANTS AGAINST PESTS” (UNIVERSITAT POLITÈCNICA DE VALÈNCIA, priority 2020, published 2023):
“Also recorded” adds a separate entry of the source.

What was measured:
Bemisia tabaci = assay: Y-tube olfactometer preference, exposed vs intact tomato plants; format: in vivo; conditions: plants exposed 24 h vs intact plants
From the text: (§1) It was studied whether the defensive activation achieved by exposure to (Z)-3-hexenyl propanoate could affect repellency and/or attraction in herbivores that attack tomatoes, the whitefly Bemisia tobaci (Gennadius) (Hemiptera: Aleyrodidae), the thrip Frankliniella occidentalis Pergande (Thysanoptera: Thripidae), the red spider Tetranychus urticae Koch (Acari: Tetranychidae) and the tomato borer, Tuta absoluta (Meyrick) (Lepidoptera: Gelechiidae), and in a natural enemy that has been used as a model organism in this crop, the parasitoid Encarsia formosa Gahan (Hymenoptera: Aphelinidae).
(§2) The last instar nymphs of B. tabaci and the pupae of E. formosa were provided by Koppert Biological Systems, S. L. (Águilas, Murcia, Spain). The recently emerged B. tabaci adults (less than 2 days old) were released into tomato plants inside 60×60×60 cm plastic cages (BugDorm-2) and placed in a climatic chamber at 25±2° C., 65±10% RH and a 14:10 h (L:D) photoperiod in IVIA. Five-day-old B. tabaci adults were used in all the experiments. In the case of E. formosa, the pupae were placed in a Petri dish 9 cm in diameter and allowed to emerge under ambient laboratory conditions (25±2° C.), with a small drop of honey as food. E. formosa females less than two days old were used in all the experiments. F. occidentalis adults came from a brood kept in captivity established in the Valencian Institute of Agrarian Research (Instituto Valenciano de Investigaciones Agrarias, IVIA) in 2010, originally from Campo de Cartagena (Murcia, Spain). The thrips brood was kept in bean pods (Phaseolus vulgaris L.; Fabales: Fabaceae) under the same conditions described above. All the F. occidentalis females used for experimentation were less than five days old. T. urticae adults were obtained from a colony established in IVIA in 2011, which initially came from clementines located in La Plana (Castelló, Spain). The mites were kept on tomato plants in a climatic chamber under the same conditions described above. T. absoluta females were obtained from colonies on tomatoes maintained in a greenhouse at IVIA at 25±4° C., 60±15% RH, and under a natural photoperiod. Newly emerged adult females less than 5 days old were used in all the assays.
(§3) To assess the preference of F. occidentalis, B. tabaci, T. urticae, T. absoluta and E. formosa for tomato plants that were previously exposed for 24 h to (Z)-3-HP relative to intact plants, a Y-shaped olfactometer was used. The plants were exposed to both volatiles as described above using the pieces of filter paper. The olfactometer (Analytical Research Systems, Gainesville, Fla.) consisted of a 2.4 cm in diameter Y-shaped glass tube with a 13.5 cm long base and two arms, each 5.75 cm long. Both side arms were connected via high-density polyethylene (HDPE) tubing to two identical glass jars (5-liter volume), each of which was connected to an air pump that produced a unidirectional humidified airflow at 150 ml/min (Pérez-Hedo et al. Journal of Pest Science 3: 543-554 (2015)).
(§4) For each species, a female was individually introduced into the inlet tube of the olfactometer and observed until she had walked at least 3 cm down one of the arms of choice or until 15 minutes had elapsed. A total of 40 valid replicates were recorded for each species for each pair of odor sources. Each individual was tested only once. […] After recording five responses, the Y-tube was rinsed with soapy water, cleaned with acetone, and allowed to dry for 5 minutes. […]

Encarsia formosa = assay: as above; format: in vivo; conditions: plants exposed 24 h vs intact plants
From the text: as §1, §2, §3, §4

[1] = system: Frankliniella occidentalis; assay: as above; format: in vivo; conditions: plants exposed 24 h vs intact plants
From the text: as §1, §2, §3, §4

Tetranychus urticae = assay: as above; format: in vivo; conditions: plants exposed 24 h vs intact plants
From the text: as §1, §2, §3, §4

Tuta absoluta = assay: as above; format: in vivo; conditions: plants exposed 24 h vs intact plants
From the text: as §1, §2, §3, §4

[2] = Emission kinetics of the dispenser (gravimetric method); format: physicochemical; conditions: 4-mL LD polyethylene vial loaded with 4 ml, field conditions; slope of the fitted model
Procedure: Two different types of polymeric emitters were used to test the activation level that different emission levels of (Z)-3-hexenyl propionate can provide: 4-mL low-density (LD) polyethylene vial and 4-mL high-density (HD) polyethylene vial. The highest emission level (5 mg/day) was achieved through previous laboratory studies with LD dispensers loaded with 20 mg of the pure substance. The lowest emission level (0.01 mg/day) was provided by HD vials loaded with a 1:100 mixture of (Z)-3-hexenyl propionate and paraffinic oil (0.02:2; g:g). The emission kinetics of the emitters used during the experiments was controlled by studying weight loss (gravimetric method). Additional dispensers were placed in the same environmental conditions, measuring their weight weekly with a precision scale (0.0001 g). The difference in weight recorded in each period will be the emitted quantity of the substance for each type of dispenser. To obtain the mean emission level of each dispenser, the recorded weights (y) are related to the aging time (x) using a multiple regression analysis.
As mentioned earlier, 2 zones were selected in each of the greenhouses in which, on 22 Feb. 2019, a dispenser (4-ml low-density (LD) polyethylene vial) loaded with 4 ml of (Z)-3-hexenyl was hung every 20 m^2 in one of them, and the other with the same surface area was used as a control treatment. […]

[3] = system: NPR1 (salicylic acid pathway); assay: Transcriptional response of NPR1 in Carrizo citrange plants exposed to the volatile; format: in vivo; conditions: intact Carrizo citrange plants exposed 24 h; n=6
Tamarixia radiata = assay: Y-tube olfactometer preference, exposed vs intact Carrizo citrange plants; format: in vivo; conditions: plants exposed 24 h vs intact plants
Procedure: To assess the preference of D. citri females and the parasitoid T. radiata to Carrizo citrange plants that were previously exposed for 24 h to (Z)-3-HP in relation to intact plants, a Y-shaped olfactometer was used in the same way as that described in Example 1, and the plants were exposed to both volatiles as described above with the use of pieces of filter paper. A total of 40 valid replicates were recorded for each species for each pair of odor sources. Each individual was tested only once. […] After recording five responses, the Y-tube was rinsed with soapy water, cleaned with acetone, and allowed to dry for 5 minutes. The odor sources were later switched between the left and right side arms to minimize any spatial effect on choice. The two types of plants (intact and induced) were used only once to assess the response of 10 females and were then replaced with new plants. The Y-tube experiment was performed under the following environmental conditions: 25±1° C. and 60±10% RH.
The D. citri adults were obtained from a colony established at SWFREC (University of Florida), initially originating from citrus fruits located in their experimental plots. The parasitoids were collected in these experimental fields. Newly emerged adult females less than 5 days old were used in all the assays.

**Q.** With CC/C=C\CCOC(=O)CC [(Z)-3-hexenyl propanoate] as the compound, how does the “Response of B. tabaci females to exposed tomato plants” value (Bemisia tabaci) read?
**A.** repel; also recorded: repellent

**Q.** And the “Response of E. formosa females to exposed tomato plants” value (Encarsia formosa)?
**A.** more attractive

**Q.** What about the “Response of F. occidentalis females to exposed tomato plants” value [1] of the same compound?
**A.** repel; also recorded: repellent

**Q.** What about the “Response of T. urticae females to exposed tomato plants” value (Tetranychus urticae) of the same compound?
**A.** no preference

**Q.** And the “Response of T. absoluta females to exposed tomato plants” value (Tuta absoluta)?
**A.** repel; also recorded: repellent

**Q.** And the “Mean emission rate from the dispenser” value [2]?
**A.** 12.2 mg/day

**Q.** What about the “Transcriptional response of NPR1 compared to control” value [3] of the same compound?
**A.** significantly overexpressed

**Q.** What about the “Response of Tamarixia radiata females to exposed citrus plants” value (Tamarixia radiata) of the same compound?
**A.** highly attractive; also recorded: more attractive
